Experimental data reported in patent US8796292B2, “Selective antibacterials for clostridium difficile infections” (GLSynthesis Inc., priority 2009, dated 2014).
Values after ≈ are worked out from the molar mass of the structure shown. Like-named read-outs stand apart in the source and are kept apart here.

What was measured:
Experiment in all cases: agar dilution MIC assay of anaerobic bacteria
E. lentum = format: cell-based, Eubacterium lentum
Procedure, shortened: (§1)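 Growth inhibition is scored as absence of colony formation on agar containing serial drug dilutions, following CLSI anaerobe guidance. Plates receive 500-1000 CFU and incubate anaerobically at 35° C. for 48 hours.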

Bi. longum = format: cell-based, Bifidobacterium longum
Procedure, shortened: as §1

Bi. brevi = format: cell-based, Bifidobacterium brevi
Procedure, shortened: as §1

Ba. fragilis = format: cell-based; settings: Bacteroides fragilis
Procedure, shortened: as §1

L. acidophilus = format: cell-based; settings: Lactobacillus acidophilus
Procedure, shortened: as §1

C. difficile = format: cell-based, Clostridium difficile; settings: Clostridioides difficile, read-out: MIC
Procedure, shortened: as §1

L. casei = format: cell-based, Lactobacillus casei; settings: Lacticaseibacillus casei
Procedure, shortened: as §1

Cc1ncc([N+](=O)[O-])n1CCO [metronidazole, reference compound]
MIC (E. lentum; Eggerthella lenta, E. lentum, Micromyx Number 1274, Table 1, read-out: MIC): 0.5 µg/mL (≈ 2.92 µM)
MIC (E. lentum; Eu. Lentum, Strain no. 1274 (ATCC strain), Table 3): 0.5 µg/mL (≈ 2.92 µM)
MIC (Bi. longum; Bi. Longum, Strain no. 3968 (ATCC strain), Table 3): 4 µg/mL (≈ 23.4 µM)
MIC (Bi. longum; Bifidobacterium longum, Bi. longum, Micromyx Number 3968, Table 1, read-out: MIC): 4 µg/mL (≈ 23.4 µM)
MIC (Bi. brevi; Bifidobacterium breve, Bi. Breve, Strain no. 3967 (ATCC strain), Table 3): 4 µg/mL (≈ 23.4 µM)
MIC (Bi. brevi; Bifidobacterium, Bi. brevi, Micromyx Number 3967, Table 1): > 16 µg/mL
MIC (Ba. fragilis; B. fragilis, Micromyx Number 0123 (ATCC strain), Table 2): 0.5 µg/mL (≈ 2.92 µM)
MIC (Ba. fragilis; B. fragilis, Strain no. 0123 (ATCC strain), Gram-negative (control), Table 3): 0.5 µg/mL (≈ 2.92 µM)
MIC (Ba. fragilis; Ba. fragilis, Micromyx Number 0123 (ATCC strain), Gram negative, Table 1): 1 µg/mL (≈ 5.84 µM)
MIC (L. acidophilus; Micromyx Number 0681, Table 1): > 16 µg/mL
MIC (L. acidophilus; Strain no. 0681, Table 3): > 32 µg/mL
MIC (C. difficile; C. diff. Strain no. 18285, Table 4): 2 µg/mL (≈ 11.7 µM)
MIC (C. difficile; C. diff. Strain no. 19265, Table 4): 0.5 µg/mL (≈ 2.92 µM)
MIC (C. difficile; C. diff. Strain no. 19273, Table 4): 0.25 µg/mL (≈ 1.46 µM)
MIC (C. difficile; C. diff. Strain no. 19281, Table 4): 0.5 µg/mL (≈ 2.92 µM)
MIC (C. difficile; C. diff. Strain no. 19291, Table 4): 0.5 µg/mL (≈ 2.92 µM)
MIC (C. difficile; C. diff. Strain no. 19369, Table 4): 0.5 µg/mL (≈ 2.92 µM)
MIC (C. difficile; C. diff. Strain no. 19382, Table 4): 0.5 µg/mL (≈ 2.92 µM)
MIC (C. difficile; C. diff. Strain no. 19540, Table 4): 4 µg/mL (≈ 23.4 µM)
MIC (C. difficile; C. diff. Strain no. 19580, Table 4): 2 µg/mL (≈ 11.7 µM)
MIC (C. difficile; C. diff. Strain no. 19680, Table 4): 4 µg/mL (≈ 23.4 µM)
MIC (C. difficile; C. diff. Strain no. 19681, Table 4): 1 µg/mL (≈ 5.84 µM)
MIC (C. difficile; C. diff. Strain no. 19683, Table 4): 2 µg/mL (≈ 11.7 µM)
MIC (C. difficile; C. diff. Strain no. 19687, Table 4): 4 µg/mL (≈ 23.4 µM)
MIC (C. difficile; C. diff. Strain no. 20066, Table 4): 4 µg/mL (≈ 23.4 µM)
MIC (C. difficile; C. diff. Strain no. 20152, Table 4): 1 µg/mL (≈ 5.84 µM)
MIC (C. difficile; C. diff. Strain no. 20307, Table 4): 0.5 µg/mL (≈ 2.92 µM)
MIC (C. difficile; C. diff. Strain no. 20494, Table 4): 1 µg/mL (≈ 5.84 µM)
MIC (C. difficile; C. diff. Strain no. 20680, Table 4): 4 µg/mL (≈ 23.4 µM)
MIC (C. difficile; C. diff. Strain no. 20934, Table 4): 1 µg/mL (≈ 5.84 µM)
MIC (C. difficile; C. diff. Strain no. 21099, Table 4): 2 µg/mL (≈ 11.7 µM)
MIC (C. difficile; C. diff., Micromyx Number 3579, Table 2): 0.5 µg/mL (≈ 2.92 µM)
MIC (C. difficile; C. diff., Micromyx Number 3580, Table 2): 0.5 µg/mL (≈ 2.92 µM)
MIC (C. difficile; C. diff., Micromyx Number 3581, Table 2): 0.5 µg/mL (≈ 2.92 µM)
MIC (C. difficile; C. diff., Micromyx Number 3582 (ATCC strain), Table 2): 0.5 µg/mL (≈ 2.92 µM)
MIC (C. difficile; C. diff., Strain no. 3580, Table 3): 1 µg/mL (≈ 5.84 µM)
MIC (C. difficile; C. diff., Strain no. 3581, Table 3): 1 µg/mL (≈ 5.84 µM)
MIC (C. difficile; C. diff., Strain no. 3582, Table 3): 0.5 µg/mL (≈ 2.92 µM)
MIC (C. difficile; C. diff., Strain no. 3584, Table 3): 0.5 µg/mL (≈ 2.92 µM)
MIC (C. difficile; C. diff., Strain no. 3585, Table 3): 1 µg/mL (≈ 5.84 µM)
MIC (C. difficile; C. diff., Strain no. 3586, Table 3): 0.12 µg/mL (≈ 0.701 µM)
MIC (C. difficile; C. diff., Strain no. 3587, Table 3): 1 µg/mL (≈ 5.84 µM)
MIC (C. difficile; C. diff., Strain no. 3588, Table 3): 0.5 µg/mL (≈ 2.92 µM)
MIC (C. difficile; C. diff., Strain no. 3589, Table 3): 2 µg/mL (≈ 11.7 µM)
MIC (C. difficile; C. diff., Strain no. 4381 (ATCC strain), Table 3): 0.5 µg/mL (≈ 2.92 µM)
MIC (C. difficile; C. difficile, Micromyx Number 1209, Table 1): 0.5 µg/mL (≈ 2.92 µM)
MIC (C. difficile; C. difficile, Micromyx Number 3579, Table 1): 0.25 µg/mL (≈ 1.46 µM)
MIC (C. difficile; C. difficile, Micromyx Number 3580, Table 1): 0.5 µg/mL (≈ 2.92 µM)
MIC (C. difficile; C. difficile, Micromyx Number 3581, Table 1): 1 µg/mL (≈ 5.84 µM)
MIC (C. difficile; C. difficile, Micromyx Number 3582, Table 1): 0.25 µg/mL (≈ 1.46 µM)
MIC (C. difficile; C. difficile, Micromyx Number 3584, Table 1): 0.5 µg/mL (≈ 2.92 µM)
MIC (C. difficile; C. difficile, Micromyx Number 3585, Table 1): 0.5 µg/mL (≈ 2.92 µM)
MIC (C. difficile; C. difficile, Micromyx Number 3586, Table 1): 0.5 µg/mL (≈ 2.92 µM)
MIC (C. difficile; C. difficile, Micromyx Number 3587, Table 1): 1 µg/mL (≈ 5.84 µM)
MIC (C. difficile; C. difficile, Micromyx Number 3588, Table 1): 0.5 µg/mL (≈ 2.92 µM)
MIC (C. difficile; C. difficile, Micromyx Number 3589, Table 1): 1 µg/mL (≈ 5.84 µM)
MIC (C. difficile; C. difficile, Micromyx Number 3590, Table 1): 0.5 µg/mL (≈ 2.92 µM)
MIC (C. difficile; C. difficile, Micromyx Number 3591, Table 1): 0.5 µg/mL (≈ 2.92 µM)
MIC (C. difficile; C. difficile, Micromyx Number 3593, Table 1): 0.5 µg/mL (≈ 2.92 µM)
MIC (C. difficile; C. difficile, Micromyx Number 3594, Table 1): 1 µg/mL (≈ 5.84 µM)
MIC (C. difficile; C. difficile, Micromyx Number 3595, Table 1): 1 µg/mL (≈ 5.84 µM)
MIC (C. difficile; C. difficile, Micromyx Number 4381 (ATCC strain), Table 1): 0.5 µg/mL (≈ 2.92 µM)
MIC (L. casei; Micromyx Number 1722, Table 1): > 16 µg/mL
MIC (L. casei; Strain no. 1722 (ATCC strain), Table 3): > 32 µg/mL
